In brackets after ≈: the same amount, converted by molar mass.
What follows are compounds tested on Mycobacterium tuberculosis (multidrugresistant strain) (assay: microbe, parasite or virus in culture). Settings: read-out: MIC, column C, 3(S) compounds.
Format: cell-based
`O=[N+]([O-])c1cn2c(n1)OC[C@@H](OCc1ccc(OCc3ccccc3)cc1)C2` [PA-647] was tested, and the MIC was ≤ 0.015 µg/mL.
For `CC(C)(C)c1ccc(CO[C@@H]2COc3nc([N+](=O)[O-])cn3C2)cc1` [PA-653], the MIC was ≤ 0.015 µg/mL.
In the case of `CCCCc1ccc(CO[C@@H]2COc3nc([N+](=O)[O-])cn3C2)cc1` [PA-822], the MIC was ≤ 0.015 µg/mL.
`O=[N+]([O-])c1cn2c(n1)OC[C@@H](OCc1ccc(OC(F)(F)F)cc1)C2` [PA-824, 3S 4-(Trifluromethoxy)benzyloxy-6-nitro-2H-3,4-dihydro-[2-1b]imidazopyran] gave an MIC of 0.13 µg/mL (≈ 0.362 µM).
